We go through 24 compounds from article PMC10180137 (Molecules, 2023).

Read-outs that look alike come from different tables or passages of the source.

For one experiment, the target named is yeast α-glucosidase. Briefly: α-glucosidase inhibitory activity assay (p-NPG substrate, absorbance at 405 nm). The experiment is classed as biochemical, Saccharomyces cerevisiae. How it is done: This experiment was carried out in 96-well plates with reaction system of 230 μL. […] The 96-well plates were incubated in a constant-temperature incubator for 20 min at 37 °C, then 20 μL of 2.658 mmol/L p-PNG was added, and then incubation continued for another 28 min. The termination of the reaction was conducted by adding 80 μL of 0.2 mol/L Na2CO3 to each well. The absorbance was recorded for each well at 405 nm by a microplate reader, and the experiment was carried out three times in parallel. The measured absorbance values were processed by Graphpad Prism software 9.5 to calculate the IC50 values of the compounds.

In the next experiment the test system is α-glucosidase. Briefly: Inhibitory kinetics against α-glucosidase (Lineweaver–Burk plots). Conditions: Lineweaver–Burk plot; compound 0, 5.44, 10.87, 21.74 μM. The experiment is classed as biochemical, Saccharomyces cerevisiae. The source says: The inhibitory kinetics of seven compounds (8-9, 11, 13, 24-26) that have strong α-glucosidase inhibitory activities were studied. The Lineweaver–Burk plot was used to determine their inhibition types against α-glucosidase. […] As for compound 8, the slope of the lines became greater with the increase in the concentration, but all straight lines intersected with the x-axis almost at one point (while Vmax decreased, Km was unchanged), showing that α-glucosidase inhibition mediated by compound 8 is noncompetitive, signifying that it can bind to either the free α-glucosidase or the enzyme–substrate complex to interfere the enzyme reaction without directly blocking the binding of the substrate to the enzyme.
Concentrations of active compounds 8-9, 11, 13, 24-26 (0, 5.44, 10.87, 21.74 μM) and the substrate p-NPG ([…]) were prepared, and an experimental protocol is described in detail in the literature. The data were acquired using the Lineweaver–Burk equation of enzyme kinetics.

Where [1] appears, read: IC50 ± SD, PBS pH 6.8, 37 °C, three times in parallel, read-out: IC50 (μM), inhibition activities on α-Glucosidase.
Where [2] appears, read: unit inferred, read-out: IC50 against α-glucosidase (unit inferred).

By IC50 is commonly meant the concentration needed to halve the response being measured. As to 3, 4′-O-dimethylquercetin [Compound 21], the IC50 on yeast α-glucosidase (setting [1]) was 19.4 ± 1.02 µM. On the same count and under the same terms, then “7, 3′, 4′-trihydroxy isoflavone [Compound 24]”, with 6.5 ± 0.42 µM.

Regarding `COc1cc(O)c2c3c1C[C@H](C(C)(C)O)[C@H](c1ccccc1)[C@H]3OC2=O` [Compound 1, cajanstilbenoid C], the IC50 at yeast α-glucosidase (setting [1]) is over 2000 µM. The same measure, in the same setting: then `COc1cc(/C=C/c2ccccc2)c(C(=O)O)c2c1C[C@@H](O)C(C)(C)O2` [Compound 2, cajanstilbenoid D], with over 2000 µM; and `CC(C)=CCc1c(O)cc(/C=C/c2ccccc2)cc1O` [Compound 3, chiricanine A], with 30.3 ± 2.33 µM; and `CC1(C)Oc2cc(/C=C/c3ccccc3)cc(O)c2CC1O` (stereo not drawn) [Compound 4, chiricanine B], with over 2000 µM. Same read-out and setting: then `COc1cc(/C=C/c2ccccc2)c(C(=O)O)c(O)c1CC=C(C)C` [Compound 5, cajaninstilbene acid], with over 2000 µM; and `COc1cc(O)cc(/C=C/c2ccccc2)c1` [Compound 6, pinosylvin monomethyl ether], with over 2000 µM. With `COc1cc(O)cc(CC(=O)c2ccccc2)c1CC=C(C)C` [Compound 7, cajanotone], at yeast α-glucosidase (setting [1]), the 50% inhibitory concentration (IC50) is over 2000 µM. For `COc1cc(O)cc(CCc2ccccc2)c1CC=C(C)C` [Compound 8], the “inhibition type against α-glucosidase” value with α-glucosidase was “noncompetitive”. For the same compound, the IC50 at yeast α-glucosidase (setting [1]) was determined as 7 ± 0.45 µM. For the compound `COc1cc(/C=C/c2ccccc2)cc(O)c1CC=C(C)C` [Compound 9, longistylin A], in the experiment on α-glucosidase, the “inhibition type against α-glucosidase” value is recorded as “mixed-competitive”. In addition, on yeast α-glucosidase (setting [1]), the half-inhibitory concentration (IC50) turned out to be 12.9 ± 1.31 µM. On to `CC(C)=CCc1c(O)cc(O)c2c(=O)c(O)c(-c3ccc(O)c(O)c3)oc12` [Compound 11, 8-prenylquercretin], for which the “inhibition type against α-glucosidase” value in the experiment on α-glucosidase is “anticompetitive”. Also, the half-maximal inhibitory concentration (IC50) at yeast α-glucosidase (setting [1]) came to 0.87 ± 0.05 µM; at yeast α-glucosidase (read-out: IC50 against α-glucosidase (text, with unit)), 0.87 ± 0.05 µM. For the compound `CC(C)=CCc1c(O)cc2oc(-c3ccccc3)cc(=O)c2c1O` [Compound 12, 6-C-(3,3-dimethylallyl) chrysin], the IC50 at yeast α-glucosidase (setting [1]) is over 2000 µM. For `COc1cc(O)c2c(=O)cc(-c3ccccc3)oc2c1CC=C(C)C` [Compound 13, 5-hydroxy-7-methoxy-8-prenylflavone], the “inhibition type against α-glucosidase” value in the experiment on α-glucosidase was “mixed-competitive”. The IC50 was 2.3 ± 0.51 µM on yeast α-glucosidase (setting [1]) and 2.3 ± 0.5 µM at yeast α-glucosidase (setting [2]).

As to `COc1cc(O)c2c(c1CC=C(C)C)O[C@H](c1ccccc1)[C@@H](O)C2=O` [Compound 14, 3,5-dihydroxy-7-methoxy-8-isopentenyl-dihydroflavone], the IC50 at yeast α-glucosidase (setting [1]) is over 2000 µM.

For `COc1cc(O)c2c(c1)O[C@H](c1ccccc1)CC2=O` [Compound 15, pinostrobin], at yeast α-glucosidase (setting [1]), the IC50 is over 2000 µM. On the same count and under the same terms, then `COc1cc(O)c2c(c1)O[C@H](c1ccc(O)cc1)CC2=O` [Compound 16, sakuranetin], with over 2000 µM; and `COc1ccc2c(=O)c(-c3ccc(O)cc3O)coc2c1` [Compound 18, 7-methoxy-2′, 4′-dihydroxy isoflavone], with over 2000 µM. As to `COc1ccc(-c2oc3cc(O)cc(O)c3c(=O)c2O)cc1O` [Compound 19, tamarixetin], the IC50 at yeast α-glucosidase (setting [1]) came to 8.7 ± 0.08 µM. With `CC(C)=CCc1c(O)cc(O)c2c1O[C@H](c1ccc(O)cc1)[C@@H](O)C2=O` [Compound 20, neophellamuretin], the IC50 at yeast α-glucosidase (setting [1]) and on yeast α-glucosidase (setting [2]) was 4.5 ± 0.49 µM each time. In the case of `O=c1cc(-c2ccc(O)cc2)oc2c(C3OCC(O)C(O)C3O)c(O)cc(O)c12` [Compound 23, apigenin-8-C-α-L-arabinopyranoside], the IC50 at yeast α-glucosidase (setting [1]) is over 2000 µM.

In the case of `O=c1cc(-c2ccc(O)c(O)c2)oc2cc(O)ccc12` [Compound 25, 7, 3′, 4′-trihydroxy flavone], the IC50 on yeast α-glucosidase (setting [1]) and on yeast α-glucosidase (setting [2]) was 3.17 ± 0.55 µM in each case. With `CC1(C)C=Cc2c(cc(O)c3c2O[C@H](c2ccc(O)cc2)CC3=O)O1` [Compound 26, 8-prenylnaringenin C], the half-maximal inhibitory concentration (IC50) on yeast α-glucosidase (setting [1]) and at yeast α-glucosidase (setting [2]) was 2.35 ± 0.54 µM each time. On to `CC1(C)C=Cc2c(cc3occ(-c4ccc(O)cc4)c(=O)c3c2O)O1` [Compound 27, alpinum isoflavone], for which the IC50 at yeast α-glucosidase (setting [1]) is over 2000 µM.
